Like-named read-outs stand apart in the source and are kept apart here.
Columns and labels:
[1] = US release of VAN from porous PLA-sealed PEEK block; type: physicochemical; conditions: 10 mg VAN loaded; 10 min US insonation (5 MHz, 4 MPa)
Procedure: During the first 15 min of immersion, 11 mg and 3 mg of drug were released (due to surface amounts in PLA) from the groups. […] […] (4) Three PLA coatings for US rupture using highly porous PEEK.

[2] = VAN release from PLA-sealed sheaths in spinal levels of a cadaverous rabbit; conditions: 4 mg VAN-loaded PLA-sealed sheaths; 20 min, 5 MHz, 3 MPa pk-pk; US parameters not optimized
Procedure: (§1) The first set of experiments uses rabbit carcasses to establish US parameters that reproducibly release the desired amounts of ABX within a mock spinal fusion site. Preliminary tests on such animals in which VAN-loaded (4 mg), PLA-sealed sheaths were placed in 4 spinal levels of a cadaverous rabbit. Site 1 and Site 3 were inoculated with 10^4 CFU S. aureus in 100 μL PBS, and Site 2 and 4 were encased in plastic to collect released VAN. Without any optimization of US parameters, ˜50% of the VAN was released by insonation (20 min, 5 MHz, 3 MPapk-pk) and caused ˜10× less bacterial colonization.

S. aureus [3] = assay: Bacterial colonization of inoculated spinal sites in a cadaverous rabbit; conditions: sites inoculated with 10^4 CFU S. aureus; insonation 20 min, 5 MHz, 3 MPa pk-pk
Procedure: as §1

bacterial lawn = assay: Passive elution of VAN from allograft bone and bacterial killing (FIG. 6); conditions: initial loading 10 mg/ml VAN
Procedure: Antibacterial activity of bone allografts: comparison of a new vancomycin-tethered allograft with allograft loaded with adsorbed vancomycin. This is an example of the elution that can be achieved without enhancement by ultrasound.
(initial loading: 10 mg/ml VAN, FIG. 6). However, a preferred sheath is sealed so that it retains antibiotics without leakage for up to 7 days (to allow for triggered release at any time prior to patient discharge) and then releases >99% of the antibiotics within 24 hrs. of US insonation. Accordingly, release can be determined based on the specific needs of the patient. Therapeutic materials loaded into the sheath may be liquids, solids, gels, or combinations thereof. Release profile of these different materials may require different structures to allow for the appropriate release.

S. aureus [4] = conditions: cited from earlier work
bacteria = conditions: US plus VAN; cited from earlier work
[5] = system: osteoblastic (MC3T3-E1) and chondrocytic (N1511) cells; conditions: cited from earlier work
[6] = US-mediated methylene blue release from PLA-sealed multiport (1 mm) PEEK sheath; type: physicochemical
Procedure: Multiple 1 mm holes (left) and one 3 mm hole (right) sheaths were submerged in water and release of methylene blue (MeB) or MeB+VAN was measured spectrophotometrically.
During the first 15 min of immersion, 11 mg and 3 mg of drug were released (due to surface amounts in PLA) from the groups. […] With a 15 min insonation (5 MHz, 3 MPa), 15 mg was released within one hour and the remaining 24 mg of drug was released by 72 hrs^39. (4) Three PLA coatings for US rupture using highly porous PEEK.

What does the source list for `CN[C@H](CC(C)C)C(=O)N[C@H]1C(=O)N[C@@H](CC(N)=O)C(=O)N[C@H]2C(=O)N[C@H]3C(=O)N[C@H](C(=O)N[C@H](C(=O)O)c4cc(O)cc(O)c4-c4cc3ccc4O)[C@H](O)c3ccc(c(Cl)c3)Oc3cc2cc(c3O[C@@H]2O[C@H](CO)[C@@H](O)[C@H](O)[C@H]2O[C@H]2C[C@](C)(N)[C@H](O)[C@H](C)O2)Oc2ccc(cc2Cl)[C@H]1O` [VAN, vancomycin]?
released VAN after US insonation [1]: 7.5 mg; VAN released by insonation [2]: ~50%; less bacterial colonization (S. aureus [3]): ~10 ×; bacterial killing (bacterial lawn; especially within the first 48 hr.): significant bacterial killing; elution from allograft bone (bacterial lawn; no ultrasound): rapid passive elution; bacterial levels on metal surface versus 0 and 4 ug/ml VAN (S. aureus [4]; 100 ug/ml of VAN (FIG. 2C)): massive reduction in bacterial levels; reduction of bacterial colonization (S. aureus [4]; 1 hr., 100× MIC): many-fold; further decrease of bacterial numbers by US in the presence of VAN (bacteria): 50-90%; concentration at which toxicity / cell death initiates ([5]; MC3T3-E1 and N1511 cells): above 1 mg/ml; toxicity in words ([5]; MC3T3-E1 and N1511 cells): low toxicity

What does the source list for `CN(C)c1ccc2nc3ccc(=[N+](C)C)cc-3sc2c1` [MeB, methylene blue]?
increase in MeB release, US group ([6]; US insonated, over 8 days): 757%; increase in MeB release, non-insonated controls ([6]; no US, at 2 days): 26%; additional MeB release, non-insonated controls ([6]; no US, out to 6 days): no additional release

Which “concentration at which toxicity / cell death initiates” value [5] does the source give for `NC[C@H]1O[C@H](O[C@H]2[C@H](O)[C@@H](O[C@H]3O[C@H](CO)[C@@H](O)[C@H](N)[C@H]3O)[C@H](N)C[C@@H]2N)[C@H](N)C[C@@H]1O` [TOB, tobramycin] here?
Its value is about 500 µg/mL.

With `O=C(O)c1cn(C2CC2)c2cc(N3CCNCC3)c(F)cc2c1=O` [CIP, ciprofloxacin] as the compound, how does the “concentration at which toxicity / cell death initiates” value [5] read?
The value was 150 to 200 µg/mL.

Source: patent publication US10485902B2, “Antibiotic drug release sheath” (Thomas Jefferson University, priority 2015, dated 2019)
